Where a name gives a salt, the structure may show the parent alone.
Columns and labels:
[1] = tested on: platelet aggregation (rabbit platelet rich plasma); assay: Platelet antiaggregatory activity in rabbit platelet rich plasma in vitro (Pharmacological test II); format: cell-based; conditions: Oryctolagus cuniculus, rabbit PRP, 1 minute preincubation at 37° C., induced by collagen (3μg/ml) or ADP (3μM), inducer not given, read-out: Antiaggregation activity IC50 (50% inhibition of the control response)
Protocol: Blood was obtained from an anesthetized rabbit using 0.1 volume of 3.8% sodium citrate as anticoagulant. Platelet rich plasma (PRP) was isolated by centrifugation at 650 rpm for 10 minutes at room temperature. After preincubation of PRP (0.25 ml) with various concentrations of the test compounds (14μl) for 1 minute at 37° C., collagen (3μg/ml: final concentration) or ADP (3μM: final concentration) was added to induce aggregation and the aggregation profiles were monitored by RIKADENKI six-channel aggregometer. The control experiment contained saline instead of the test compound.
The antiaggregatory activity was represented by the concentration of the test compounds which elicited 50% inhibition of the control response.

guineapig teania coli = assay: Calciumantagonistic activity: inhibition of Ca++-evoked contraction of isolated guineapig teania coli (Pharmacological test I); format: cell-based; conditions: Cavia porcellus, 5 min, Ca++-free-high-K Krebs solution, 32° C., 5 minutes exposure before CaCl2 (3×10^-4M), read-out: Calciumantagonistic activity IC50 (50% inhibition of Ca++-evoked contraction)
Protocol: The action potentials on the smooth muscles of uterus, teania coli and portal vein depend on calcium ion, and therefore these smooth muscle preparations are useful for screening of calciumantagonists. We measured the calciumantagonistic activity of the compounds by the method using guineapig teania coli preparation.
Isolated guineapig teania coli was suspended in a 20 ml organ bath with Krebs solution at 32° C. and bubbled with 5% carbon dioxide in oxygen. After equilibration, the muscle was washed with Ca^++ -free Krebs solution, and when the muscle had relaxed to basal level, it was suspended in Ca^++ -free-high-K Krebs solution.
The muscule was exposed to the test compounds for 5 minutes before addition of CaCl2, and the contraction evoked by CaCl2 (3×10^-4M) was recorded isotonically. The calciumantagonistic activity was represented by the concentration of the test compound which elicited 50% inhibition of Ca^++ -evoked contraction (IC50).

Row | SMILES | IC50 [1] [µM] | IC50 (guineapig teania coli) [µM]
1 | COc1ccc(OCCCCN2CCC(C(=O)c3ccc(C)cc3)CC2)c(C2Sc3ccccc3N2C(C)=O)c1 (stereo not shown) [compound 3, 3-Acetyl-2-(5-methoxy-2-[4-[4-(4-methylbenzoyl)-1-piperidyl]butoxy]phenyl]benzothiazoline maleate] | 3.2 | 
2 | COc1ccc(OCCCCN2CCC(C(=O)c3ccc(Cl)cc3)CC2)c(C2Sc3ccccc3N2C(C)=O)c1 (stereo not shown) [compound 4, 3-Acetyl-2-[2-[4-[4-(4-chlorobenzoyl)-1-piperidyl]butoxy]-5-methoxyphenyl]benzothiazoline maleate] | 3.2 | 8.7
3 | COc1ccc(OCCCCN2CCC(C(O)c3ccccc3)CC2)c(C2Sc3ccccc3N2C(C)=O)c1 (stereo not drawn) [compound 5, 3-Acetyl-2-[2-[4-[4-(α-hydroxybenzyl)-1-piperidyl]butoxy]5-methoxyphenyl]benzothiazoline maleate] |  | 8.2
4 | COc1ccc(OCCCCN2CCC(C(=O)c3ccc(F)cc3)CC2)c(C2Sc3ccccc3N2C(C)=O)c1 (stereo not shown) [compound 6, 3Acetyl-2-[2-[4-[4-(4-fluorobenzoyl)-1-piperidyl]butoxy]-5-methoxyphenyl]benzothiazoline maleate] | 0.29 | 1.6
5 | COc1ccc(OCCCCN2CCC(C(=O)Cc3ccccc3)CC2)c(C2Sc3ccccc3N2C(C)=O)c1 (stereo not shown) [compound 7, 3-Acetyl-2-[2-[4-(4-benzylcarbonyl-1piperidyl)butoxy]-5-methoxyphenyl]benzothiazoline maleate] |  | 3.2
